In brackets after ≈: the same amount, converted by molar mass. Counter-ions that a name gives are not always drawn.
Experiments:
HSV-2 (196) = test: Antiviral activity in vitro: retardation of virus-induced cytopathogenicity in primary rabbit kidney cells, HSV-2 (196); assay type: cell-based, herpes simplex virus, Type 2; conditions: Human alphaherpesvirus 2, average of 2 or 3 determinations, read-out: Minimum Inhibitory Concentration (concentration necessary to reduce by 50% the cytopathogenicity induced by the virus)
From the text: (§1) In a series of biological tests an investigation was made of the activity of the compounds of Examples 1-3 in comparison with acyclovir against various viruses in cell cultures of primary rabbit kidney cells.
(§2) The viruses used were: herpes simplex type 1 (strains KOS, Mc Intyre and F) and herpes simplex type 2 (strains Lyons, G and 196).
(§3) The origin of the six herpes simplex strains and the method for the measurement of the retardation of the cytopathogenicity induced by the virus are described by E. de Clercq et al. in J. Infect Dis., 141, 563 (1980).
(§4) The results of the tests are reproduced in the following table, where they are expressed in the minimum inhibitory concentration, that is to say the concentration (in μg/ml) which is necessary to reduce by 50% the cytopathogenicity induced by the virus in the cell culture. In all cases average values of 2 or 3 separate determinations are given.

HSV-1 (KOS) = test: Antiviral activity in vitro: retardation of virus-induced cytopathogenicity in primary rabbit kidney cells, HSV-1 (KOS); assay type: cell-based, herpes simplex virus, Type 1; conditions: Human alphaherpesvirus 1, average of 2 or 3 determinations, read-out: Minimum Inhibitory Concentration (concentration necessary to reduce by 50% the cytopathogenicity induced by the virus)
From the text: as §1, §2, §3, §4

HSV-1 (F) = test: Antiviral activity in vitro: retardation of virus-induced cytopathogenicity in primary rabbit kidney cells, HSV-1 (F); assay type: cell-based, herpes simplex virus, Type 1; conditions: Human alphaherpesvirus 1, average of 2 or 3 determinations, read-out: Minimum Inhibitory Concentration (concentration necessary to reduce by 50% the cytopathogenicity induced by the virus)
From the text: as §1, §2, §3, §4

HSV-1 (McIntyre) = test: Antiviral activity in vitro: retardation of virus-induced cytopathogenicity in primary rabbit kidney cells, HSV-1 (McIntyre); assay type: cell-based, herpes simplex virus, Type 1; conditions: Human alphaherpesvirus 1, average of 2 or 3 determinations, read-out: Minimum Inhibitory Concentration (concentration necessary to reduce by 50% the cytopathogenicity induced by the virus)
From the text: as §1, §2, §3, §4

HSV-2 (G) = test: Antiviral activity in vitro: retardation of virus-induced cytopathogenicity in primary rabbit kidney cells, HSV-2 (G); assay type: cell-based, herpes simplex virus, Type 2; conditions: Human alphaherpesvirus 2, average of 2 or 3 determinations, read-out: Minimum Inhibitory Concentration (concentration necessary to reduce by 50% the cytopathogenicity induced by the virus)
From the text: as §1, §2, §3, §4

HSV-2 (Lyons) = test: Antiviral activity in vitro: retardation of virus-induced cytopathogenicity in primary rabbit kidney cells, HSV-2 (Lyons); assay type: cell-based, herpes simplex virus, Type 2; conditions: Human alphaherpesvirus 2, average of 2 or 3 determinations, read-out: Minimum Inhibitory Concentration (concentration necessary to reduce by 50% the cytopathogenicity induced by the virus)
From the text: as §1, §2, §3, §4

herpes viruses = conditions: H. J. Schaeffer et al, Nature, 272, 583-585 (1978); cited from earlier work
HSV-1 (strain McIntyre) = test: Antiviral activity in vivo: HSV-1 stromal keratitis in rabbits, eye drops
Protocol: The in vivo antiviral activity of the compound of Example 1 was compared with the known antiviral bromovinyldeoxyuridine.
Eye drops containing 0.5% (w/v) of bromovinyldeoxyuridine or 1% w/v of compound of Example 1 were prepared in an isotonic borate buffer containing 1.52 g boric acid, 0.008 g borax and 0.01 g benzalkoniumchloride in 100 ml distilled water. The pH of the solution was 5.7. The vehicle alone without any antiviral ingredients was used as placebo. The eye drops were coded.
A cross-breed of California albino and Dendermonde white rabbits, weighing between 1.5 and 2 kg, were used.
Thirty rabbits were used to produce stromal keratitis according to the technique of McNeill and Kaufman (Arch. Ophthalmol. 97: 727-729, 1979). Rabbits were anesthetized by a subcutaneous injection of fentanyl citrate at 1 ml/kg. A 0.2 ml virus suspension, containing 10^4.5 plaque-forming units of HSV-1 (strain McIntyre) per ml, was injected into the central corneal stroma of both eyes.
The rabbits were numbered serially and allocated at random to three groups of […] rabbits each. Treatment consisted of administration of eye drops containing the compound of Example 1, bromovinyldeoxyuridine, or placebo eye drops. Treatment was started one day after virus inoculation. One drop of the eye drop formulation was instiled into the eye at hourly intervals, nine times as day. Therapy was continued for 5 consecutive days. Both eyes of each rabbit received the same modification.
The severity of keratitis was evaluated daily by the same person using a slitlamp. White illumination was used to examine the corneal stroma and anterior chamber structures. One percent fluorescein sodium eye drops and a cobalt blue filter were employed to judge epithelial keratitis and corneal ulceration.

[1] = eye drops, Example 1 at 1% w/v or bromovinyldeoxyuridine at 0.5% w/v
[2] = iritis accompanying stromal HSV-1 keratitis, eye drops

| IC50 (HSV-2 (196)) [µg/mL] | IC50 (HSV-1 (KOS)) [µg/mL] | IC50 (HSV-1 (F)) [µg/mL] | IC50 (HSV-1 (McIntyre)) [µg/mL] | IC50 (HSV-2 (G)) [µg/mL] | IC50 (HSV-2 (Lyons)) [µg/mL] | Compound | antiviral activity (herpes viruses) | difference in keratitis score versus placebo (HSV-1 (strain McIntyre); [1]) | progression or healing of stromal disease (HSV-1 (strain McIntyre); [1]) | suppression of stromal keratitis (HSV-1 (strain McIntyre); eye drops, Example 1 at 1% w/v or bromovinyldeoxyuridine at 0.5% w/v, hourly nine times a day, 5 days) | difference in iritis scores versus placebo (HSV-1 (strain McIntyre); [2]) | reduction in the iritis scores (HSV-1 (strain McIntyre); [2]) | mean keratitis scores (HSV-1 (strain McIntyre); once treatment was initiated, 1% w/v eye drops) |
| --- | --- | --- | --- | --- | --- | --- | --- | --- | --- | --- | --- | --- | --- |
| 0.1 | 0.2 | 0.5 | 0.4 | 0.15 | 0.1 | NCCC(=O)OCCOCn1cnc2c(=O)[nH]c(N)nc21 [Example 3, 9-(2-0-β-alanyloxyethoxymethyl)guanine hydrochloride] |  |  |  |  |  |  |  |
| 0.1 | 0.4 | 0.4 | 0.4 | 0.2 | 0.07 | CC(N)C(=O)OCCOCn1cnc2c(=O)[nH]c(N)nc21 (stereo not drawn) [Example 2, 9-(2-0-α-alanyloxyethoxymethyl)guanine hydrochloride] |  |  |  |  |  |  |  |
| 0.06 (≈ 0.266 µM) | 0.08 (≈ 0.355 µM) | 0.09 (≈ 0.4 µM) | 0.1 (≈ 0.444 µM) | 0.06 (≈ 0.266 µM) | 0.04 (≈ 0.178 µM) | Nc1nc2c(ncn2COCCO)c(=O)[nH]1 [Acyclovir, 9-(2-Hydroxyethoxymethyl)guanine, reference compound] | potential antiviral activity, particularly against herpes viruses |  |  |  |  |  |  |
| 0.07 | 0.1 | 0.1 | 0.1 | 0.08 | 0.04 | Cl.NCC(=O)OCCOCn1cnc2c(=O)[nH]c(N)nc21 [Example 1, 9-(2-glycyloxyethoxymethyl)guanine hydrochloride] |  | statistically significant throughout the whole observation period | prevented the progression of stromal disease | effective in suppressing stromal keratitis | significant from day 2 till day 8 | significant reduction in the iritis scores | remained nearly constant |

— patent publication US4548819A, “Derivatives of 9-(2-hydroxyethoxymethyl) guanine” (priority 1983, dated 1985)
